One data set has as its target T1, hDcpS (Homo sapiens, UniProt Q96C86).
T1 sequence (Q96C86 1-337): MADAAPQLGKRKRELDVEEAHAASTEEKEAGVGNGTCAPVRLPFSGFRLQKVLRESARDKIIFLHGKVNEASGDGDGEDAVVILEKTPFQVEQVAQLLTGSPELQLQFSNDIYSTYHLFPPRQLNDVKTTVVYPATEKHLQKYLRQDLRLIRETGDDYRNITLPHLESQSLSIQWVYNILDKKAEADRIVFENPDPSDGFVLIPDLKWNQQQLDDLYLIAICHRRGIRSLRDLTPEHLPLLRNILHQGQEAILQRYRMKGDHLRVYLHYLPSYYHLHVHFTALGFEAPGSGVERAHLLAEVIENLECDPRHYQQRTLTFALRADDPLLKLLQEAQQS
It counts as in vitro ADME. The settings on record: 100 μM compound, 20 nM hDcpS; for hDcpS Assay: fraction of the cap remaining after 1 h incubation with DcpS: 37 °C. The procedure: Susceptibility to decapping scavenger (DcpS) is one of the factors that could potentially influence the cellular stability of mono- and dinucleotide cap analogs designed as translational inhibitors. Therefore, we studied the susceptibility of arylmethyl-modified dinucleotides to DcpS. The compounds (at 100 μM concentration each) were incubated with 20 nM of hDcpS, and the hydrolysis progress at different time points was analyzed via RP HPLC and compared to m^7GpppG (Figure 4 and Figure S3).
The enzymatic activity of DcpS was assayed at 37 °C in 50 mM Tris∙HCl, pH 7.6 containing 200 mM KCl, 0.5 mM EDTA. DcpS cleavage assays were carried out with 100 μM of the tested compound and 20 nM (monomer) of the hDcpS. Enzymatic reaction progress was examined after 30, 60 and 180 min. As a control, a sample was examined before adding enzyme. Aliquots of 15 μL were terminated by heat inactivation of the enzyme for 3 min at 98 °C. The samples were analyzed via RP HPLC equipped with a Supelcosil LC-18-T column (4.6 × 250 mm, 5 μm, flow rate 1.3 mL/min).

Another data set relates to A549 cells. Briefly: translational efficiency of mRNAs capped with the analogs in A549 cells (Gaussia luciferase). In kind it is cell-based. The procedure:
Finally, we tested the properties of arylmethyl cap analogs as reagents for co-transcriptional mRNA capping. […] Here, we sought to evaluate the translational properties of mRNAs capped with N7-arylmethyl analogs in cultured cells. To that end, the translation properties of transcripts capped with selected analogs were assessed in A549 cells. In vitro transcribed mRNAs encoding Gaussia luciferase, capped with compounds 1a–1k, 1m–1n, and 1p–1r or with reference analogues m^7GpppG and ARCA (m^7GmpppG), were purified via RP HPLC, transfected into A549 cells, and the protein activity (luminescence) was measured using a reporter assay at 72 h post-transfection. The total amount of protein produced over 72 h from each capped RNA was normalized to m^7GpppG RNA (Figure 6 and Figure S4). […] Namely, replacing the N7-methyl group with a benzyl moiety (1a) increased protein production over fivefold in A549 cells compared to m^7GpppG-capped mRNA (Figure 6).
The influence of N7-arylmethylated dinucleotide 5′ cap analogues on the translational properties of HPLC-purified IVT mRNA is shown in Figure S4, Measurements are total protein produced over 72 h by A549 cells transfected with capped mRNAs. Each plot in Figure S4 represents a single experiment consisting of three independent transfections of the cells at the same passage. Bars show mean value normalized to […] ± SD. In the main manuscript, all nine data points from three different cell passages were combined to present cumulative protein expression.

The target in another data set is eIF4E (Mus musculus, UniProt P63073). Kind of data set: time-synchronized fluorescence quenching titration with eIF4E. The following applies: 50 mM Hepes pH 7.2, 134.5 mM KCl, 20 °C, read-out: KD Cap-eIF4E ± SD (value in brackets) (converted). It counts as binding. The text has this: High affinity for eIF4E is a desirable feature of cap analogs designed for modulating translation, either as small molecules or as a part of mRNA. Thus, we studied how different substituents at the N7-position affected eIF4E-cap interaction. To this end, we first determined the affinity of m^7GpppG and Bn^7GpppG (1a) using time-synchronized fluorescence quenching titration, a very precise and well-established, but low-throughput method. Next, to evaluate the whole set of the synthesized compounds (1a–1r), we used a high-throughput competitive-binding assay based on a pyrene-labeled fluorescent probe. From this assay we determined relative affinities of the compounds represented by half-effective concentrations (EC50) (Figure 3A–C), which were then used to calculate dissociation constant (KD) values for cap analog–eIF4E complexes using previously reported equations (Table 2, Figure 3D).

Data set [1] deals with translation in vitro (RRL). Also noted: method as in PMID 15317978. The settings on record: cap incorporated into mRNA; cited from earlier work.

The structures appear in SMILES notation.

A word on the Kd: it is a measure of binding affinity in units of concentration.

eIF4E, sequence (P63073 whole entry): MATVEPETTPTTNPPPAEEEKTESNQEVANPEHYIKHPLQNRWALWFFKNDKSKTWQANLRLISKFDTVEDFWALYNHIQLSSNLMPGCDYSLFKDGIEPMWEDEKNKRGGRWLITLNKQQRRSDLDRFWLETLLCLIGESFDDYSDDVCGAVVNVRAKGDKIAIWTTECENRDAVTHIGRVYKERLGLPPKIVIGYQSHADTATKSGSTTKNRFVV

On to `Nc1nc(O)c2c(n1)n([C@@H]1O[C@H](COP(=O)(O)OP(=O)([O-])OP(=O)(O)OC[C@H]3O[C@@H](n4cnc5c(=O)[nH]c(N)nc54)[C@H](O)[C@@H]3O)[C@@H](O)[C@H]1O)c[n+]2Cc1ccc(Cl)cc1` [1h, 4-Cl-Bn^7GpppG], for which, at hDcpS, the “conversion after 1 h of incubation with hDcpS” value (shortened to “conversion after 1 h”) was approximately 70% and the “hDcpS Assay: fraction of the cap remaining after 1 h incubation with DcpS” value is reported as 0.67. Besides, the “increase of protein production compared to ARCA” value in the data set on A549 cells (A549 cells, 72 h) is on record as 2.5 fold.
In the case of `Nc1nc(O)c2c(n1)n([C@@H]1O[C@H](COP(=O)(O)OP(=O)([O-])OP(=O)(O)OC[C@H]3O[C@@H](n4cnc5c(=O)[nH]c(N)nc54)[C@H](O)[C@@H]3O)[C@@H](O)[C@H]1O)c[n+]2Cc1ccccc1` [1a, Bn^7GpppG], the Kd on eIF4E is 107 nM. Besides, on hDcpS, the “conversion after 1 h” value is reported as “approximately 50%” and the “hDcpS Assay: fraction of the cap remaining after 1 h incubation with DcpS” value was 0.51. Further, the “increase of protein production compared to m^7GpppG-capped mRNA” value in the data set on A549 cells (A549 cells, 72 h) is listed as “over fivefold”. The “translation efficiency in vitro relative to m^7GpppG-capped mRNAs” value in data set [1] is recorded as “almost twofold higher”.
For `Nc1nc(O)c2c(n1)n([C@@H]1O[C@H](COP(=O)(O)OP(=O)([O-])OP(=O)(O)OC[C@H]3O[C@@H](n4cnc5c(=O)[nH]c(N)nc54)[C@H](O)[C@@H]3O)[C@@H](O)[C@H]1O)c[n+]2Cc1ccc(C(F)(F)F)cc1` [1l, 4-CF3-Bn^7GpppG], on hDcpS, the “susceptibility to hDcpS (in words)” value is recorded as “Lower susceptibility to hydrolysis” and the “hDcpS Assay: fraction of the cap remaining after 1 h incubation with DcpS” value is given as 0.87.
In the same order, the values of `CC(C)c1ccc(C[n+]2cn([C@@H]3O[C@H](COP(=O)(O)OP(=O)([O-])OP(=O)(O)OC[C@H]4O[C@@H](n5cnc6c(=O)[nH]c(N)nc65)[C@H](O)[C@@H]4O)[C@@H](O)[C@H]3O)c3nc(N)nc(O)c32)cc1` [1e, 4-iPrBn^7GpppG] are “Lower susceptibility to hydrolysis” and 0.94.
Consider `Nc1nc(O)c2c(n1)n([C@@H]1O[C@H](COP(=O)(O)OP(=O)([O-])OP(=O)(O)OC[C@H]3O[C@@H](n4cnc5c(=O)[nH]c(N)nc54)[C@H](O)[C@@H]3O)[C@@H](O)[C@H]1O)c[n+]2Cc1ccc([N+](=O)[O-])cc1` [1n, 4-NO2-Bn^7GpppG], for which, at hDcpS, the “conversion after 1 h” value was approximately 70% and the “hDcpS Assay: fraction of the cap remaining after 1 h incubation with DcpS” value stood at 0.75.
In the same order, the values of `Nc1nc(O)c2c(n1)n([C@@H]1O[C@H](COP(=O)(O)OP(=O)([O-])OP(=O)(O)OC[C@H]3O[C@@H](n4cnc5c(=O)[nH]c(N)nc54)[C@H](O)[C@@H]3O)[C@@H](O)[C@H]1O)c[n+]2Cc1ccc(F)cc1` [1g, 4-F-Bn^7GpppG] are approximately 70% and 0.76.
Take `Nc1nc(O)c2c(n1)n([C@@H]1O[C@H](COP(=O)(O)OP(=O)([O-])OP(=O)(O)OC[C@H]3O[C@@H](n4cnc5c(=O)[nH]c(N)nc54)[C@H](O)[C@@H]3O)[C@@H](O)[C@H]1O)c[n+]2Cc1ccc(Br)cc1` [1i, 4-Br-Bn^7GpppG]: at hDcpS, the “conversion after 1 h” value is on record as approximately 70% and the “hDcpS Assay: fraction of the cap remaining after 1 h incubation with DcpS” value is reported as 0.60.
As for `Cn1c[n+]([C@@H]2O[C@H](COP(=O)(O)OP(=O)([O-])OP(=O)(O)OC[C@H]3O[C@@H](n4cnc5c(=O)[nH]c(N)nc54)[C@H](O)[C@@H]3O)[C@@H](O)[C@H]2O)c2nc(N)[nH]c(=O)c21` [m^7GpppG, reference compound], at eIF4E, the equilibrium dissociation constant (Kd) is 160 nM. At hDcpS, the “conversion after 1 h” value is given as “approximately 50%” and the “hDcpS Assay: fraction of the cap remaining after 1 h incubation with DcpS” value came out at 0.49. In addition, the “Rel. Protein Expression” value with A549 cells (mRNA capped with the analog, Gaussia luciferase activity in A549 cells 72 h post-transfection, normalized to m^7GpppG RNA) is recorded as 1.0.
For `Cc1cccc(C[n+]2cn([C@@H]3O[C@H](COP(=O)(O)OP(=O)([O-])OP(=O)(O)OC[C@H]4O[C@@H](n5cnc6c(=O)[nH]c(N)nc65)[C@H](O)[C@@H]4O)[C@@H](O)[C@H]3O)c3nc(N)nc(O)c32)c1` [1c, 3-MeBn^7GpppG], at hDcpS, the “susceptibility to hDcpS (in words)” value is listed as “very slowly hydrolyzed” and the “hDcpS Assay: fraction of the cap remaining after 1 h incubation with DcpS” value was found to be 0.84.
Turning to `CO[C@@H]1[C@H](O)[C@@H](COP(=O)(O)OP(=O)([O-])OP(=O)(O)OC[C@H]2O[C@@H](n3cnc4c(=O)[nH]c(N)nc43)[C@H](O)[C@@H]2O)O[C@H]1n1c[n+](Cc2ccc(Cl)cc2)c2c(O)nc(N)nc21` [1r, 4-Cl-Bn^7GmpppG], at hDcpS, the “susceptibility to hDcpS (in words)” value is on record as “resistant to hDcpS” and the “hDcpS Assay: fraction of the cap remaining after 1 h incubation with DcpS” value is listed as 0.99. Further, in the data set on A549 cells (A549 cells, 72 h), the “change of protein expression of ARCA analog compared to 2'-O-unmethylated counterpart (1q vs 1a, 1r vs 1h)” value was “decreased the protein expression by twofold”.
For `CO[C@@H]1[C@H](O)[C@@H](COP(=O)(O)OP(=O)([O-])OP(=O)(O)OC[C@H]2O[C@@H](n3cnc4c(=O)[nH]c(N)nc43)[C@H](O)[C@@H]2O)O[C@H]1n1c[n+](Cc2ccccc2)c2c(O)nc(N)nc21` [1q, Bn^7GmpppG] the same measures were “resistant to hDcpS”, 0.97 and “additional twofold increase”.
On to `Nc1nc(O)c2c(n1)n([C@@H]1O[C@H](COP(=O)(O)OP(=O)([O-])OP(=O)(O)OC[C@H]3O[C@@H](n4cnc5c(=O)[nH]c(N)nc54)[C@H](O)[C@@H]3O)[C@@H](O)[C@H]1O)c[n+]2Cc1ccc(F)c(F)c1` [1k, 3,4-di-F-Bn^7GpppG], for which, at hDcpS, the “conversion after 1 h” value is recorded as approximately 70% and the “hDcpS Assay: fraction of the cap remaining after 1 h incubation with DcpS” value was found to be 0.70.

Source of the values: PMC8623273, “Novel N7-Arylmethyl Substituted Dinucleotide mRNA 5′ cap Analogs: Synthesis and Evaluation as Modulators of Translation” (Pharmaceutics, 2021).
